Reference: patent US6579686B2, “Constitutive androstane receptor” (SmithKline Beecham Corporation, priority 2000, dated 2003)
Entries after “also recorded” stand apart in the source; their conditions may differ. Read-outs that look alike come from different tables or passages of the source.

Columns and labels:
[1] = molecular target: T1, hCAR LBD (Homo sapiens, UniProt Q14994); assay: Scintillation proximity binding assay with [3H]clotrimazole; conditions: 10 nM [3H]clotrimazole, 10 μM competitor
T1 construct: or 103-348 of hCAR; made in house; host or cells: E. coli BL21(DE3), pRSETa
T1 sequence (Q14994 103-348 isoform Q14994-2): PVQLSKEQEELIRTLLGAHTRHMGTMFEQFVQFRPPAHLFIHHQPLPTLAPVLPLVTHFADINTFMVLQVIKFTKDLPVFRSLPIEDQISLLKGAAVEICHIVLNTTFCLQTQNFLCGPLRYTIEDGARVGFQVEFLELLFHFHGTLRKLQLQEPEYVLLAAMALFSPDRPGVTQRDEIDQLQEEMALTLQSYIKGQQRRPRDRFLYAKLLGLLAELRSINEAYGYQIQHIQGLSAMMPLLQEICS
Method: Scintillation proximity binding assay. Streptavidin polyvinyltoluene SPA beads (Amersham Pharmacia Biotech) were resuspended in assay buffer (50 mM Tris, 50 mM KCl, 1 mM CHAPS, 0.1 mg/ml BSA, 10 mM DTT). Biotinylated hCAR LBD was added to a final concentration of 50 nM. The amount of biotinylated receptor can be varied to account for variations in the extent of biotinylation and/or the observed S/N ratio for different batches of receptor. […] The receptor/bead mixture was allowed to incubate at room temperature for 15 min with gentle agitation. Uncoupled receptor was removed by centrifuging the receptor/bead mixture at 2500 rpm for 10 min and pouring off the supernatant. Receptor-coupled beads were resuspended in assay buffer and a second wash performed. All experiments were run in Costar 96-well SPA plates using an assay volume of 100 μl.

[2] = molecular target: T2, human CAR (hCAR) (Homo sapiens, UniProt Q14994); conditions: for EC50: read-out: EC50 values for activation/deactivation of CAR, HCAR, transfected CV-1 cells, 0.0001 μM to 10 μM in half-log steps, EC50 given only for ≧ 2-fold activation or deactivation relative to basal activity
T2 sequence (Q14994 1-348 isoform Q14994-2): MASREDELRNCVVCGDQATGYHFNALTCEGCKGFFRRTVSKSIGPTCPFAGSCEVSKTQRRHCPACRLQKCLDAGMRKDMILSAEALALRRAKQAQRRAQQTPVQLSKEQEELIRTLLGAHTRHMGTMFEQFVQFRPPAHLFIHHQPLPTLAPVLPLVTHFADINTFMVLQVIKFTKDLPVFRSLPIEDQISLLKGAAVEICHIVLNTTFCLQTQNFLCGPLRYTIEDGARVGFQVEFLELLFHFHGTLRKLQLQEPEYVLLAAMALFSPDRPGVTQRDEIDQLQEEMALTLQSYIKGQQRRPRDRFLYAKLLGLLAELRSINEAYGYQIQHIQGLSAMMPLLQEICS

[3] = molecular target: T3, mouse CAR (mCAR) (Mus musculus, UniProt O35627)
T3 sequence (O35627 1-358): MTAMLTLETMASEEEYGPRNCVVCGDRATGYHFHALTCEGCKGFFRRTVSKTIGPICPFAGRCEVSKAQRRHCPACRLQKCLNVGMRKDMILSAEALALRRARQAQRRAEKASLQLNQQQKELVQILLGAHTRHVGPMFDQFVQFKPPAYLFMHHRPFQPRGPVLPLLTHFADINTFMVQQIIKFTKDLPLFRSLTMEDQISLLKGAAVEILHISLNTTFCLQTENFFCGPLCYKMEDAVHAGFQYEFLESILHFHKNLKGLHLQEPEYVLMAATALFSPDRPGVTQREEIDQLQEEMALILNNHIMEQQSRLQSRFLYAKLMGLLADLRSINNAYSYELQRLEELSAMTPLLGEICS

[4] = molecular target: T2, human CAR (hCAR); assay: cell-based
[5] = molecular target: T3, mouse CAR (mCAR); assay: in vitro
[6] = molecular target: T4, hCAR/SRC-1 interaction (Homo sapiens, UniProt Q14994); assay: FRET ligand sensing assay, hCAR LBD with SRC-1 LXXLL peptide; format: biochemical; conditions: SRC-1 peptide amino acids 676 to 700
T4 construct: or 103-348 of hCAR; made in house; host or cells: E. coli BL21(DE3), pRSETa
T4 sequence (Q14994 103-348 isoform Q14994-2): T1 sequence (Q14994 103-348 isoform Q14994-2)
Method: The mCAR and hCAR LBD were each expressed in E. coli strain BL21(DE3) as a polyhistidine-tagged fusion protein. […] Cells were lysed by passing 3 times through an APV Rannie MINI-lab homogenizer and cell debris was removed by centrifugation (30 minutes, 20,000 g, 4° C.). After adjusting the imidazole concentration to 50 mM, the lysate was loaded onto a column packed with Sepharose [Ni^++ charged] Chelation resin (Pharmacia) and pre-equilibrated with TBS pH 8.0/50 mM imidazole. […] The recombinant protein was eluted with a gradient from 50 to 500 mM imidazole. Column peak fractions were pooled immediately and diluted 5-7 fold with 25 mM Tris pH 8.0, containing 5% 1,2-propanediol, 0.5 mM EDTA and 5 mM DTT. The diluted protein sample was then loaded onto a column packed with Poros HQ resin (PerSeptive Biosystems) and eluted with a gradient from 0-500 mM NaCl. Peak fractions were pooled and concentrated using Centri-prep 10K (Amicon) and subjected to size exclusion, using a column packed with Superdex-75 resin (Pharmacia) pre-equilibrated with TBS, pH 8.0, containing 5% 1,2-propanediol, 0.5 mM EDTA and 5 mM DTT.
The purified CAR LBDs were desalted/buffer exchanged using PD-10 gel filtration columns into PBS [100 mM NaPhosphate, pH 7.2, 150 mM NaCl]. […]
Fluorescence resonance energy transfer (FRET) ligand sensing assay. […]

[7] = molecular target: T2, human CAR (hCAR); assay: in vitro
[8] = CV-1 cells, PB tested at 0.5 mM (high concentrations)
[9] = read-out: EC50 values for activation/deactivation of CAR, mCAR, transfected CV-1 cells, 0.0001 μM to 10 μM in half-log steps, EC50 given only for ≧ 2-fold activation or deactivation relative to basal activity

## CC(=O)[C@H]1CC[C@H]2[C@@H]3CC[C@@H]4CC(=O)CC[C@]4(C)[C@H]3CC[C@]12C [5β-pregnane-3,20-dione]
[1]
  competition with [3H]clotrimazole for binding to hCAR (in words): competed efficiently
[2]; CV-1 cells, relative to basal activity
  activation of hCAR: ~2 fold
[3]; CV-1 cells, screened at 10 μM
  effect on mCAR reporter activity (in words): only weak effects
[4]
  EC50: 0.67 µM
[5]
  EC50 at 24 h: > 10 µM
[6]
  effect on hCAR LBD/SRC-1 interaction (in words): marked increase in the binding of SRC-1 to hCAR

## CCC1(c2ccccc2)C(=O)NC(=O)NC1=O [PB, phenobarbital]
[2]; [8]
  effect on hCAR reporter activity (in words): weak but reproducible deactivation; also recorded: deactivated hCAR
[3]; [8]
  effect on mCAR reporter activity (in words): weak but reproducible deactivation

## CC#C[C@]1(O)CC[C@H]2[C@@H]3CCC4=CC(=O)CCC4=C3[C@@H](c3ccc(N(C)C)cc3)C[C@@]21C [RU486]
[7]
  EC50 at 24 h: > 10 µM
[5]
  EC50 at 24 h: > 10 µM

## CCOP(=O)(OCC)C(=Cc1cc(C(C)(C)C)c(O)c(C(C)(C)C)c1)P(=O)(OCC)OCC [SR12813]
[1]
  competition with [3H]clotrimazole for binding to hCAR (in words): did not compete
[2]; CV-1 cells, screened at 10 μM
  effect on hCAR reporter activity (in words): little or no effect; also recorded: little or no activity
[2]
  EC50: > 10 µM
[3]; CV-1 cells, screened at 10 μM
  effect on mCAR reporter activity (in words): little or no effect
[3]; [9]
  EC50: > 10 µM

## Clc1cnc(Oc2ccc(Oc3ncc(Cl)cc3Cl)cc2)c(Cl)c1 [TCPOBOP, 1,4-bis[2-(3,5-dichloropyridyloxy)]benzene]
[1]
  competition with [3H]clotrimazole for binding to hCAR (in words): did not compete
[2]; CV-1 cells, screened at 10 μM
  effect on hCAR reporter activity (in words): virtually no activity; also recorded: little or no activity
[2]
  EC50: > 10 µM
[3]; CV-1 cells, screened at 10 μM
  effect on mCAR reporter activity (in words): efficacious activator of mCAR
[3]; read-out: EC50 for activation of mCAR, CV-1 cells
  EC50: ~0.1 µM
[3]; [9]
  EC50: 0.1 µM

## C[C@@]12CCC[C@H]1[C@@H]1CC[C@H]3C[C@@H](O)CC[C@]3(C)[C@H]1CC2 [androstanol]
[1]
  competition with [3H]clotrimazole for binding to hCAR (in words): competed efficiently
[2]; CV-1 cells, screened at 10 μM
  effect on hCAR reporter activity (in words): deactivated hCAR, though the effect was not nearly as pronounced as on mCAR
[2]
  EC50: > 10 µM
[3]; CV-1 cells, screened at 10 μM
  effect on mCAR reporter activity (in words): efficacious deactivator of mCAR
[3]; [9]
  EC50: 0.84 µM
[6]
  effect on hCAR LBD/SRC-1 interaction (in words): disrupted this interaction

## Clc1ccccc1C(c1ccccc1)(c1ccccc1)n1ccnc1 [clotrimazole]
[2]; CV-1 cells, screened at 10 μM
  effect on hCAR reporter activity (in words): efficacious deactivator of hCAR

## C[C@@H]1C[C@H]2[C@@H]3CCC4=CC(=O)C=C[C@]4(C)[C@@]3(F)[C@@H](O)C[C@]2(C)[C@@]1(O)C(=O)CO [dexamethasone]
[7]
  EC50 at 24 h: > 10 µM
[5]
  EC50 at 24 h: > 10 µM
